“Also recorded” adds a separate entry of the source.
What was measured:
GPR65 = target: T1, GPR65 (Homo sapiens, UniProt Q8IYL9); assay: AP assay: MPCs infected with Ad-GPR65 and treated with ligand; format: cell-based; details: ligand at different concentrations
T1 construct: amplification of the complete open reading frame from ATG start codon to the stop codon of drugable genes; expressed in transfected cells; host or cells: primary human mesenchymal progenitor cells (MPCs), transduced with Ad-GPR65 and Ad-hCAR
Experimental: These dose-response curves are depicted in FIG. 5. A dose-response curve for AP activity is generated for MPCs infected with Ad-NR1H3 and treated with T0901317 (FIG. 5A). MPCs are seeded on day 0 at 1000 cells per well of a 384 well plate and co-infected the next day using AdC51-hCAR (MOI 250) and different MOIs of Ad5-NR1H3 (MOI 12000, 4000, 1333, 444). On day 1, 5 concentrations (1E-10M, 1E-9M, 1E-8M, 1E-7M, 1E-6M) of the compound T0901317 (Cayman Chemical, Michigan, USA, Cat. No. 71810) with fixed vehicle concentration (the vehicle is DMSO at the concentration is 0.01%) are added to the wells. After incubation for 6 days at 37° C., 10% CO2 in a humidified incubator, up-regulation of alkaline phosphatase is read: 15 μl MUP is added to each well, the plates are incubated for 15 min at 37° C. and monitored for AP activity using a fluorescence plate reader (Fluostar, BMG).
Dose-response curves for AP activity are generated in a similar way for MPCs infected with Ad-GPR65 and treated with 1-b-D-Galactosylsphingosine (FIG. 5B); for MPCs infected with Ad-AVPR2 and treated with [deamino-Cysl, D-Arg8]-Vasopressin (DDAVP) (FIG. 5C).

NR5A2 mRNA = assay: Up-regulation of NR5A2 and NR1H3 mRNA levels by osteogenic triggers in MPCs; format: cell-based, human; details: final concentration 0.1 μM, vs vehicle, several time points
Experimental: 100,000 MPCs are seeded in each well of a 6 well plate in 2 ml MPC medium, containing 10% FCS. The next day, after incubation at 37° C., 10% CO2 in a humidified incubator, cells are co-infected with AdC15-hCAR (final MOI of 750) and Ad-BMP2, Ad-RUNX2, Ad-MSX2, Ad-PTHR1/PTHLH or Ad-eGFP or Ad-luciferase as negative controls (final MOIs of 1250 and 2500). Alternatively, cells are treated with dexamethasone (final concentration 0.1 μM), VitD3 (final concentration 0.1 μM) or the vehicle controls (0.1% EtOH or DMSO). Cells are incubated at 37° C., 10% CO2 in a humidified incubator for a further six days unless cells are already harvested for RNA isolation. Virus is removed and replaced by 2 ml fresh OS medium (proprietary medium containing 10% FCS). Over the next 18 days, medium is refreshed 3 times per 2 weeks. Every other time, medium is refreshed half or completely. […] The fold up-regulation of NR5A2 or NR1H3 mRNA compared to negative controls (vehicle for dexamethasone or VitD3 treatment) or Ad-luciferase for Ad-infections) is calculated (FIG. 16).

[1] = test system: calvarial skull bones (hemicalvaria); assay: Calvarial skull assay (bone organ culture); format: cell-based, CD1 mice
Experimental: CD1 pups are harvested around birth from CD1 female mice (received from Janvier (Le Genest St Isle, France) when they were 11 days pregnant). Pups are decapitated and the calvarial skull is dissected and split into 2 hemicalvaria. Hemicalvaria are blotted using sterile gauze, weighed and cultured in 24 well plates (MEMalpha or BGJb-Fitton-Jackson medium containing 50 μg/ml L-ascorbic acid (Sigma, A-4034), 5 mM β-glycerophosphate (Sigma, G-9891) and Penicillin-Streptomycin (Invitrogen Cat # 15140-122)). Small molecules (ligands, agonists, antagonists) are tested in at least three-fold at a minimum of 3 concentrations. Each small molecule is added to the medium on day 0 and added again when refreshing the medium (every 2-3 days). Three to 16 days after the start of the experiment, skulls are weighed again after blotting them dry using sterile gauze. The weight difference is calculated, expressed as percent weight change and the mean and standard deviations (SD) are calculated for the triplicate measurements. Data are analyzed using the Student's t-test.
The formation of new osteoid is analyzed histologically as follows: hemicalvaria are fixed in 10% buffered formalin for at least 2 days, decalcified in 10% EDTA overnight, processed through graded alcohols and embedded in paraffin wax. Three to 10 μm sections are prepared of the calvaria and stained with hematoxylin and eosin (H&E). Healthy cells, dead cells, old and new bone, and collagen are identified by their distinctive morphology and colouring observed after H&E staining. The surfaces taken by these are measured stereologically (μm^2 readout) and termed Osteoblast area, Debris area, Native and New bone area, Collagen area and Total area (sum of the previous 5 areas), respectively. In addition, the thickness (μm readout) is measured at 8 positions, evenly spaced over the section.
The histological readout of the calvarial skull assay is developed using known osteogenic agents. Hemicalvaria were treated with recombinant human parathyroid hormone (rhPTH).
T0901317 is added to the culture medium of the dissected hemicalvaria at the day of dissection at several doses (19.5, 78.1 and 313 nM), in fourfold. The concentration of the solvent (vehicle), DMSO, is fixed at a final concentration of 0.05%. The medium, containing T0901317 or vehicle control is refreshed every 2-3 days. Hemicalvaria are harvested 7 days after the initiation of the experiment and subjected to the histological analysis described above.

T1 sequence (Q8IYL9 whole entry): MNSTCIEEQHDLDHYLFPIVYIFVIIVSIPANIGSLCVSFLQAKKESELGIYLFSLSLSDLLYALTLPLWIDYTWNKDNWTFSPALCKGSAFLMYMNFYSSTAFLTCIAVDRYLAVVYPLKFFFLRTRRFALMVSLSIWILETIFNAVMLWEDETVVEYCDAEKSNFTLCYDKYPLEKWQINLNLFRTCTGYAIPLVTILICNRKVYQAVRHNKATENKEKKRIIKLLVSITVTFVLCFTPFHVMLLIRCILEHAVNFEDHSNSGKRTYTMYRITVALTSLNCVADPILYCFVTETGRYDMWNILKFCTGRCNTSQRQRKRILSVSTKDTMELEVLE

## CCCCCCCCCCCCCC=CC(O)C(N)CO[C@@H]1O[C@H](CO)[C@H](O)[C@H](O)[C@H]1O (stereo partly drawn) [1-b-D-Galactosylsphingosine]
GPR65
  up-regulation of endogenous alkaline phosphatase (AP) activity, dose-response: dose-dependently increase the up-regulation of the endogenous alkaline phosphatase activity; also recorded: dose-dependent up-regulation of AP activity

## C=C1CC[C@H](O)C/C1=C/C=C1\CCC[C@]2(C)[C@@H]([C@H](C)CCCC(C)C)CC[C@@H]12 [VitD3]
NR5A2 mRNA
  NR5A2 mRNA levels: up-regulated

B1: PTH: recombinant human parathyroid hormone, known osteogenic agent (protein, UniProt P01270 32-115, looked up)
Parathyroid hormone: SVSEIQLMHNLGKHLNSMERVEWLRKKLQDVHNFVALGAPLAPRDAGSQRPRKKEDNVLVESHEKSLGEADKADVNVLTKAKSQ
modifications: Parathyroid hormone
notes: recombinant human parathyroid hormone, known osteogenic agent
[1]; 10^−7 M
  effect on bone tissue: resorptive effect on bone tissue
[1]; 10^−11 M
  effect on bone tissue: induces bone build-up

— patent US20060020036A1, “Methods and compositions to promote bone homestasis” (priority 2004, published 2006)
